One data set relates to Canada horseweed (ERICA). In words: Test 9 field trial, emerged weeds before corn planting. It counts as in vivo, Erigeron canadensis. The note with it: g a.i./ha: Cpd 2 100, Glyphosate 1540, Paraquat 1150. The method, then: Corn seeds (hybrid ‘Pioneer 34M91 RR’) were planted in mid spring season, about 3.8 cm deep in a silty clay loam soil having a pH of 6.7. Plots were 9.1 m long by 3.0 m. The field was managed using no-till practices. […] Compound 2 and paraquat treatments, alone and in combination, also included a surfactant. Glyphosate, alone and with Compound 2, included ammonium sulfate in the treatment mixture. […] The effects on the weeds in the treated plots and untreated control plots were recorded 7, 14, 23, 30 and 57 days after application. Most of the weed species could not be evaluated at every timing. Corn response was only evaluated 57 days after application. […] Results are the means of the three replicates.

A further data set deals with corn (ZEAMD). Kind of data set: Test 7 field trial, preemergence. It counts as in vivo, Zea mays ssp. indentata. As to conditions: 1000 g a.i./ha. The method, then:
(§1) Plots were 7.6 m long by 3.0 m wide with rows spaced 76 cm apart. Seeds were spaced 15 cm apart within the rows. The field was managed using conventional tillage practices. […] Wild radish was evaluated 14 and 28 days after application. […] Results are the means of the three replicates.

Another data set concerns morningglory (IPOSS). In words: Test 7 field trial, preemergence. The format is in vivo, Ipomoea L. spp. The note with it: 1000 g a.i./ha. On the procedure: as §1
For a further data set, the system named is yellow nutsedge (CYPES). Kind of data set: Test 2 field trial, preemergence. It counts as in vivo, Cyperus esculentus. Further details: scale not given here. The source says:
(§2) Corn seeds (hybrid ‘Pioneer 31G96’) were planted in mid spring season, 3.8 cm deep in a clay loam soil having 2% organic matter and a pH of 6.6. Plots were 6.1 m long by 3.0 m wide with rows spaced 76 cm apart. Seeds were spaced 15 cm apart within the rows. The field was managed using conventional tillage practices. […] A few of the weed species could not be evaluated at every timing. […] Results are the means of the three replicates.

A further data set has as its system giant ragweed (AMBTR). In words: Test 2 field trial, preemergence. The format is in vivo, Ambrosia trifida. Details: scale not given here.
From the text: as §2

The test system of another data set is Russian thistle (SASKR). Kind of data set: Test 23 growth chamber, postemergence. It counts as in vivo, Salsola kali. As to conditions: 21 DAA; 2,4-D or MCPA alone 250 g a.i./ha. The method, then: (§3) A test was conducted to evaluate the effects on winter barley (HORVW, Hordeum vulgare L.), winter wheat (TRZAW, Triticum aestivum L.), and several weed species of mixtures of Compound 2 with the commercial herbicides (2,4-dichlorophenoxy)acetic acid (2,4-D) and (4-chloro-2-methylphenoxy)acetic acid (MCPA), auxin mimics. […] Plants were treated postemergence at the 2-4 leaf growth stage, and each treatment was replicated three times. […] Plants were watered as needed. […] Results are means of the three replicates.

Data set [1] has as its system field poppy (PAPRH). In words: Test 21 growth chamber, postemergence. It counts as in vivo, Papaver rhoeas. As to conditions: 19 DAA. The method, then:
A test was conducted to evaluate the effects on winter barley (HORVW, Hordeum vulgare L.), winter wheat (TRZAW, Triticum aestivum L.), and several weed species, of mixtures of Compound 2 with the commercial herbicide (2,4-dichlorophenoxy)acetic acid (2,4-D), an auxin mimic. […] Plants were treated postemergence at the 2-4 leaf growth stage, and each treatment was replicated one time. […] Plants were watered as needed. […] Results are from single replicates.

Data set [2] deals with field poppy (PAPRH). In words: Test 23 growth chamber, postemergence. The note with it: 21 DAA; 2,4-D or MCPA alone 250 g a.i./ha. The format is in vivo, Papaver rhoeas. The method, then: as §3
Data set [3] relates to common lambsquarters (CHEAL). In words: Test 23 growth chamber, postemergence. The format is in vivo, Chenopodium album. As to conditions: 21 DAA; 2,4-D or MCPA alone 250 g a.i./ha. On the procedure:
as §3

For data set [4], the system named is common lambsquarters (CHEAL). Kind of data set: Test 22 growth chamber, postemergence. The format is in vivo, Chenopodium album. As to conditions: 25 DAA; 2,4-D or MCPA alone 250 g a.i./ha. On the procedure: A test was conducted to evaluate the effects on winter barley (HORVW, Hordeum vulgare L.), winter wheat (TRZAW, Triticum aestivum L.), and several weed species of mixtures of Compound 2 with the commercial herbicides (2,4-dichlorophenoxy)acetic acid (2,4-D) and (4-chloro-2-methylphenoxy)acetic acid (MCPA), auxin mimics. […] Plants were treated postemergence at the 2-4 leaf growth stage, except KCHSC, SASKR and STEME which were in the 4-8 leaf growth stage. Each treatment was replicated one time. […] Plants were watered as needed. […] Results are from single replicates.

Data set [5] deals with tropical spiderwort (COMBE). Kind of data set: Test 12 field trial, preemergence. The format is in vivo, Commelina benghalensis. Details: scale not given here. As to conditions: Cpd 2 or Cpd 1 62 g a.i./ha, Diuron 2000 g a.i./ha. The source says:
In early-mid spring season, corn seeds (hybrid ‘Pioneer 3041’) were planted 5 cm deep and sugarcane nodes (variety RB-72.454) were planted 10 cm deep in separate plots in a clay soil having 2.6% organic matter and a pH of 5.6. Plots were 24 m long by 1.5 m wide with rows spaced 80 cm (corn) or 140 cm (sugarcane) apart. Corn seeds were spaced 15 cm apart and sugarcane nodes were spaced 10 cm apart within the rows. At the same time, weed seeds were broadcast over the surface of separate plots without a crop, one weed species per plot. The weed plots were rotary tilled to incorporate the weed seeds to a variety of depths. The field was managed using conventional tillage practices.

[6] abbreviates: 18 DAA, g a.i./ha: Cpd 2 25, Atrazine 250.
The mark [7] stands for this setting: 18 DAA, g a.i./ha: Cpd 2 50, Atrazine 500.
Setting [8] is: 18 DAA, g a.i./ha: Cpd 2 75, Atrazine 750.
Where [9] appears, read: 18 DAA, g a.i./ha: Cpd 2 100, Atrazine 1000.
[10] abbreviates: 28 DAA, g a.i./ha: Cpd 2 25, Atrazine 250.
Setting [11] is: 28 DAA, g a.i./ha: Cpd 2 50, Atrazine 500.
[12] abbreviates: 28 DAA, g a.i./ha: Cpd 2 75, Atrazine 750.

Consider `O=C(O)CNCP(=O)(O)O` [Glyphosate], for which the “ERICA Obs” value in the data set on Canada horseweed (ERICA) (7 DAA) stood at 45%; in the data set with Canada horseweed (ERICA) (14 DAA) it was 76%; with Canada horseweed (ERICA) (23 DAA), 98%; with Canada horseweed (ERICA) (30 DAA), 100%; in the data set with Canada horseweed (ERICA) (57 DAA) it was 84%.

`CCc1cccc(C)c1N(C(=O)CCl)[C@@H](C)COC` [S-Metolachlor, S-metolachlor, reference compound]: the “ZEAMD Obs” value amounted to 10% with corn (ZEAMD) (14 DAA), 8% in the data set on corn (ZEAMD) (28 DAA) and 0% in the data set with corn (ZEAMD) (62 DAA). The “IPOSS Obs” value with morningglory (IPOSS) (14 DAA) is on record as 48%; in the data set on morningglory (IPOSS) (28 DAA), 50%; with morningglory (IPOSS) (62 DAA), 13%.

Turning to `CCNc1nc(Cl)nc(NC(C)C)n1` [Atrazine, atrazine, reference compound], the “CYPES Obs” value with yellow nutsedge (CYPES) (setting [6]) turned out to be 13; with yellow nutsedge (CYPES) (setting [7]), 18; with yellow nutsedge (CYPES) (setting [8]) it was 40; in the data set with yellow nutsedge (CYPES) (setting [9]), 28; in the data set on yellow nutsedge (CYPES) (18 DAA, g a.i./ha: Cpd 2 150, Atrazine 1500), 27; in the data set on yellow nutsedge (CYPES) (setting [10]), 0. In addition, the “CYPES Obs” value with yellow nutsedge (CYPES) (setting [11]) was 5; in the data set on yellow nutsedge (CYPES) (setting [12]) it was 0; with yellow nutsedge (CYPES) (28 DAA, g a.i./ha: Cpd 2 100, Atrazine 1000) it was 2; in the data set with yellow nutsedge (CYPES) (28 DAA, g a.i./ha: Cpd 2 150, Atrazine 1500) it was 0; in the data set with yellow nutsedge (CYPES) (55 DAA, g a.i./ha: Cpd 2 25, Atrazine 250), 10; in the data set with yellow nutsedge (CYPES) (55 DAA, g a.i./ha: Cpd 2 50, Atrazine 500), 13. Moreover, the “CYPES Obs” value in the data set on yellow nutsedge (CYPES) (55 DAA, g a.i./ha: Cpd 2 75, Atrazine 750) is 0; with yellow nutsedge (CYPES) (55 DAA, g a.i./ha: Cpd 2 100, Atrazine 1000), 62; in the data set with yellow nutsedge (CYPES) (55 DAA, g a.i./ha: Cpd 2 150, Atrazine 1500), 60. Besides, the “AMBTR Obs” value in the data set with giant ragweed (AMBTR) (setting [6]) is listed as 0; in the data set with giant ragweed (AMBTR) (setting [7]), 30; with giant ragweed (AMBTR) (setting [8]), 75; with giant ragweed (AMBTR) (setting [9]), 20; with giant ragweed (AMBTR) (setting [10]) it was 10; in the data set on giant ragweed (AMBTR) (setting [11]), 5. The “AMBTR Obs” value with giant ragweed (AMBTR) (setting [12]) was 65.

For the molecule `O=C(O)COc1ccc(Cl)cc1Cl` [2,4-D, (2,4-dichlorophenoxy)acetic acid], the “Postemergence SASKR Obs” value in the data set on Russian thistle (SASKR) worked out at 63. Also, the “Postemergence PAPRH Obs” value is on record as 35 in the data set on field poppy (PAPRH) [1] (2,4-D alone 125 g a.i./ha), 35 with field poppy (PAPRH) [1] (2,4-D alone 250 g a.i./ha) and 52 in the data set with field poppy (PAPRH) [2]. For the same molecule, the “Postemergence CHEAL Obs” value in data set [3] is 58; in [4], 60.

Take `Nc1nc(C2CC2)nc(C(=O)O)c1Cl` [Compound 1, 6-amino-5-chloro-2-cyclopropyl-4-pyrimidinecarboxylic acid]: the “COMBE Obs” value in data set [5] (15 DAA) was 60; in [5] (29 DAA), 40; in data set [5] (48 DAA) it was 40; in data set [5] (61 DAA), 0.

(Values after patent US20100285959A1, “HERBICIDAL MIXTURES” (priority 2006, published 2010).)
